Assay results taken from patent publication US6124263A, “Treatment of tumors by administration of growth hormone releasing compounds and their antagonists” (Asta Medica AG, priority 1998, dated 2000).
Numbered stars: 1 amine (or outer) side, 2 acyl side, 3 side chain; on linkers, the order of the positions; unused ones are H or OH. Square brackets hold non-standard residues; d marks the D form. Peptide text beside a SMILES is read from it. Haic = O=C1[C@@H](N[*:1])CCc2cccc3c2N1[C@H](C(=O)[*:2])C3; dTrp(2-Me) = Cc1[nH]c2ccccc2c1C[C@@H](N)C(=O)O

How the values were obtained:
[1] = system: Human lung carcinoma cells (CaLu1); type: cell-based; conditions: for EC50: 3 h; for effect on basal and EGF-stimulated 3H-thymidine incorporation: 10-6 mol/l compound, 20 h + 4 h incubation, FIG. 4
Method: Human lung carcinoma cells (CaLu1), T47D and MDA-MB231, respectively, human oestrogen dependent and oestrogen independent breast cancer cell lines were purchased from the ATCC (Rockville, Md., USA). Cells were routinely cultured in […] flasks at 37° C., 5% CO2 and 95% humidified atmosphere in RPMI supplemented with 10% FCS, penicillin-streptomycin and fungizone. When a subconfluent state was reached, cells were detached from the flasks with trypsin/EDTA. DNA synthesis was evaluated by ^3 H-thymidine incorporation as described in G. Muccioli et al., Journal of Endocrinology, 153, 365-371, 1997. […] After incubation for 20 hours, ^3 H-thymidine was added and incubation was continued for a further 4 hours. The reaction was halted and the cells were harvested onto glass-fiber filter strips. Incorporation of ^3 H-thymidine was measured in a scintillation counter.

[2] = system: GHRP receptors; experiment: GHRP receptor assay: 125I-Tyr-Ala-Hexarelin binding to tumor membranes; design: species or system human; conditions: for competition with 125I-Tyr-Ala-Hexarelin for the tumoral binding sites (displacement of radiotracer binding): membranes of a non-endocrine carcinoma of lung origin, FIG. 3
Method: Surgical tumor specimens were collected from the Department of Biomedical Sciences and Human Oncology (Division of Pathology) of the University of Turin. A tumor fragment adjacent to that used for histopathological diagnosis was immediately frozen at -80° C. and stored for 2 to 60 months until further processed for binding studies. Samples of 13 invasive breast carcinoma (10 ductal and 3 lobular), 14 non-endocrine lung carcinomas (5 squamous cell and 9 adenocarcinomas), 11 endocrine tumors of the lung, 9 endocrine tumors of the pancreas and 12 thyroid carcinomas (7 of follicular origin and 5 of medullary origin) were used. Non-neoplastic normal tissues of the corresponding organs were also analysed in parallel with the individual tumors.
GHRP receptors were measured on tumor membranes as described in G. Muccioli et al., Journal of Endocrinology, 157, 99-106, 1998, using ^125 I-Tyr-Ala-Hexarelin as a ligand. Specific binding was calculated as the difference between binding in the absence and in the presence of excess unlabelled Tyr-Ala-Hexarelin and expressed as a percentage of the radioactivity added. Saturation and competition binding studies were analyzed with the GraphPAD Prism 2 program (GraphPAD Software, San Diego, Calif., USA).

[3] = system: Human lung carcinoma cells (CaLu1); experiment: Cell growth study (cell count), human lung carcinoma cells; type: cell-based; conditions: FIG. 6
Method: (§1) Human lung carcinoma cells (CaLu1), T47D and MDA-MB231, respectively, human oestrogen dependent and oestrogen independent breast cancer cell lines were purchased from the ATCC (Rockville, Md., USA). Cells were routinely cultured in […] flasks at 37° C., 5% CO2 and 95% humidified atmosphere in RPMI supplemented with 10% FCS, penicillin-streptomycin and fungizone. When a subconfluent state was reached, cells were detached from the flasks with trypsin/EDTA. Cell growth studies were carried out as described in P.Cassoni et al., Virchows Archiv, 425, 467-472, 1994. Cells were seeded in triplicate in 24-multiwell plates at a density of 5,000-10,000 cells/ml. Twenty-four hours after plating the medium was changed. Hexarelin or Ala-Hexarelin were added where requested at concentrations ranging from 10^-8 to 10^-6 mol/l. The medium was changed every 48 hours. Cells were counted at 48 and 72 or 96 hours of treatment in a double blind analysis by two independent investigators using a haemocytometer.

[4] = system: human breast cancer MDA-MB231 cells; experiment: Cell growth study (cell count), MDA-MB231 cells; type: cell-based; conditions: FIG. 8a
Method: as §1

[5] = system: human breast cancer T47D cells; experiment: Cell growth study (cell count), T47D cells; type: cell-based; conditions: FIG. 7a
Method: as §1

[6] = 10^-7 mol/l and 10^-6 mol/l, any time point tested

NCCCC[C@H](NC(=O)[C@@H](Cc1ccccc1)NC(=O)[C@H](Cc1c[nH]c2ccccc12)NC(=O)[C@@H](CCCCN)NC(=O)[C@@H](Cc1c[nH]c2ccccc12)NC(=O)[C@@H](N)Cc1c[nH]cn1)C(N)=O [(D-Lys)3 -GHRP6, His-D-Trp-D-Lys-Trp-D-Phe-Lys-NH2] (H-H[dW][dK]W[dF]K-NH2)
EC50 [1]: 90 nM

CC(C)(N)C(=O)N[C@H](COCc1ccccc1)C(=O)N1CCC2(CC1)CN(S(C)(=O)=O)c1ccccc12 [MK0677, reference compound]
competition with 125I-Tyr-Ala-Hexarelin for the tumoral binding sites (displacement of radiotracer binding) [2]: negligible displacement
effect on basal and EGF-stimulated 3H-thymidine incorporation ([1]; EGF 1 ng/ml): slight inhibition

^125 I-Tyr-Ala-His-D-Mrp-Ala-Trp-D-Phe-Lys-NH2 [^125 I-Tyr-Ala-Hexarelin]
binding of 125I-Tyr-Ala-Hexarelin to tumor membranes as a function of radioligand concentration (saturation, Scatchard) ([2]; non-endocrine carcinoma of lung origin, FIG. 2): saturable specific binding

Cc1[nH]c2ccccc2c1C[C@@H](NC(=O)[C@H](Cc1c[nH]cn1)NC(=O)[C@H](C)NC(=O)[C@@H](N)Cc1ccc(O)cc1)C(=O)N[C@@H](C)C(=O)N[C@@H](Cc1c[nH]c2ccccc12)C(=O)N[C@H](Cc1ccccc1)C(=O)N[C@@H](CCCCN)C(N)=O [Tyr-Ala-Hexarelin, Tyr-Ala-His-D-Mrp-Ala-Trp-D-Phe-Lys-NH2] (H-YAH[dTrp(2-Me)]AW[dF]K-NH2)
EC50 [1]: 65 nM

Cc1[nH]c2ccccc2c1C[C@@H](NC(=O)[C@@H]1Cc2cccc3c2N1C(=O)[C@@H](N)CC3)C(=O)N[C@H](CCCCN)C(=O)N[C@@H](Cc1c[nH]c2ccccc12)C(=O)N[C@H](Cc1ccccc1)C(=O)N[C@@H](CCCCN)C(N)=O [EP80317, HAIC-D-Mrp-D-Lys-Trp-D-Phe-Lys-NH2] (Haic-[dTrp(2-Me)][dK]W[dF]K-NH2)
EC50 [1]: 56 nM

C[C@H](N)C(=O)NCC(=O)N[C@H]1CSSC[C@@H](C(=O)O)NC(=O)[C@H](CO)NC(=O)[C@H]([C@@H](C)O)NC(=O)[C@H](Cc2ccccc2)NC(=O)[C@H]([C@@H](C)O)NC(=O)[C@H](CCCCN)NC(=O)[C@H](Cc2c[nH]c3ccccc23)NC(=O)[C@H](Cc2ccccc2)NC(=O)[C@H](Cc2ccccc2)NC(=O)[C@H](CC(N)=O)NC(=O)[C@H](CCCCN)NC1=O [somatostatin]
competition with 125I-Tyr-Ala-Hexarelin for the tumoral binding sites (displacement of radiotracer binding) [2]: no competition

GHRH: Human GHRH (GHRH 1-44) purchased from Bachem
competition with 125I-Tyr-Ala-Hexarelin for the tumoral binding sites (displacement of radiotracer binding) [2]: no competition

Cc1[nH]c2ccccc2c1C[C@@H](NC(=O)[C@@H](N)Cc1cnc[nH]1)C(=O)N[C@@H](C)C(=O)N[C@@H](Cc1c[nH]c2ccccc12)C(=O)N[C@H](Cc1ccccc1)C(=O)N[C@@H](CCCCN)C(N)=O [Hexarelin, His-D-Mrp-Ala-Trp-D-Phe-Lys-NH2] (H-H[dTrp(2-Me)]AW[dF]K-NH2)
decrease in cell number compared with control at higher concentrations [3, 6]: further increased
decrease in cell number compared with control ([3]; 10^-8 mol/l, after 96 hours): -47%
competition with 125I-Tyr-Ala-Hexarelin for the tumoral binding sites (displacement of radiotracer binding) [2]: displaced in a dose-dependent fashion
effect on basal and EGF-stimulated 3H-thymidine incorporation ([1]; EGF 1 ng/ml): able to inhibit both basal and the EGF-stimulated
inhibition of the proliferative effect of EGF with increasing concentrations ([1]; 10^-8 to 10^-6 mol/l, EGF 1 ng/ml, FIG. 5): inhibited in a dose-dependent fashion
EC50 [1]: 80 nM
decrease in cell number compared with control at higher concentrations [4, 6]: further increased
decrease in cell number compared with control ([4]; 10^-8 mol/l, after 72 hours): -33%
decrease in cell number compared with control at higher concentrations [5, 6]: further increased
decrease in cell number compared with control ([5]; 10^-8 mol/l, after 96 hours): -54%

Cc1[nH]c2ccccc2c1C[C@@H](NC(=O)[C@H](Cc1c[nH]cn1)NC(=O)[C@H](C)N)C(=O)N[C@@H](C)C(=O)N[C@@H](Cc1c[nH]c2ccccc12)C(=O)N[C@H](Cc1ccccc1)C(=O)N[C@@H](CCCCN)C(N)=O [Ala-Hexarelin, Ala-His-D-Mrp-Ala-Trp-D-Phe-Lys-NH2] (H-AH[dTrp(2-Me)]AW[dF]K-NH2)
EC50 [1]: 100 nM
